Results reported in US20220054513A1, “COMBINATION COMPOSITIONS COMPRISING A BETA-LACTAMASE INHIBITOR” (VenatoRx Pharmaceuticals, Inc., priority 2018, published 2022).

Test system: Acinetobacter baumannii-calcoaceticus species complex clinical isolates
Assay: MIC of triple combinations (Compound 1, sulbactam, meropenem or cefepime), 141 clinical isolates
Format: cell-based
Settings: Acinetobacter
Excerpt: For a more comprehensive assessment of the ability of test compounds to potentiate sulbactam in triple combinations with β-lactams additional MIC assays were utilized.

CC1(C)[C@H](C(=O)O)N2C(=O)C[C@H]2S1(=O)=O [SUL, Sulbactam]
MIC: 128 mg/L | MIC (strain 990089, Cmpd 1 at 4 μg/mL in combinations): 16 mg/L | MIC (strain 993131, Cmpd 1 at 4 μg/mL in combinations): 32 mg/L | MIC (strain 993139, Cmpd 1 at 4 μg/mL in combinations): 32 mg/L | MIC (strain 994180, Cmpd 1 at 4 μg/mL in combinations): 16 mg/L | MIC (strain 994181, Cmpd 1 at 4 μg/mL in combinations): 16 mg/L | MIC (strain 995771, Cmpd 1 at 4 μg/mL in combinations): 16 mg/L | MIC (strain 996612, Cmpd 1 at 4 μg/mL in combinations): 64 mg/L | MIC (strain 996707, Cmpd 1 at 4 μg/mL in combinations): 32 mg/L | MIC (strain 996869, Cmpd 1 at 4 μg/mL in combinations): 32 mg/L | MIC (strain 997574, Cmpd 1 at 4 μg/mL in combinations): 32 mg/L | MIC (strain 998107, Cmpd 1 at 4 μg/mL in combinations): 16 mg/L | MIC (strain 998532, Cmpd 1 at 4 μg/mL in combinations): 16 mg/L | MIC (strain 998898, Cmpd 1 at 4 μg/mL in combinations): 64 mg/L | MIC (strain 998907, Cmpd 1 at 4 μg/mL in combinations): 32 mg/L | MIC (strain 999306, Cmpd 1 at 4 μg/mL in combinations): 8 mg/L | MIC (strain 999343, Cmpd 1 at 4 μg/mL in combinations): 32 mg/L | MIC (strain 1001007, Cmpd 1 at 4 μg/mL in combinations): 32 mg/L | MIC (strain 1001143, Cmpd 1 at 4 μg/mL in combinations): 32 mg/L | MIC (strain 1001611, Cmpd 1 at 4 μg/mL in combinations): 16 mg/L | MIC (strain 1002208, Cmpd 1 at 4 μg/mL in combinations): 16 mg/L | MIC (strain 1002247, Cmpd 1 at 4 μg/mL in combinations): 64 mg/L | MIC (strain 1002688, Cmpd 1 at 4 μg/mL in combinations): 16 mg/L | MIC (strain 1002952, Cmpd 1 at 4 μg/mL in combinations): 64 mg/L | MIC (strain 1003557, Cmpd 1 at 4 μg/mL in combinations): 8 mg/L | MIC (strain 1003662, Cmpd 1 at 4 μg/mL in combinations): 16 mg/L | MIC (strain 1003787, Cmpd 1 at 4 μg/mL in combinations): 32 mg/L | MIC (strain 1004867, Cmpd 1 at 4 μg/mL in combinations): 64 mg/L | MIC (strain 1005265, Cmpd 1 at 4 μg/mL in combinations): 32 mg/L | MIC (strain 1005290, Cmpd 1 at 4 μg/mL in combinations): 16 mg/L | MIC (strain 1007660, Cmpd 1 at 4 μg/mL in combinations): 32 mg/L | MIC (strain 1008508, Cmpd 1 at 4 μg/mL in combinations): 16 mg/L | MIC (strain 1008510, Cmpd 1 at 4 μg/mL in combinations): 32 mg/L | MIC (strain 1008730, Cmpd 1 at 4 μg/mL in combinations): 32 mg/L | MIC (strain 1008756, Cmpd 1 at 4 μg/mL in combinations): 64 mg/L | MIC (strain 1010245, Cmpd 1 at 4 μg/mL in combinations): 16 mg/L | MIC (strain 1010383, Cmpd 1 at 4 μg/mL in combinations): 32 mg/L | MIC (strain 1011959, Cmpd 1 at 4 μg/mL in combinations): 16 mg/L | MIC (strain 1013022, Cmpd 1 at 4 μg/mL in combinations): 8 mg/L | MIC (strain 1013035, Cmpd 1 at 4 μg/mL in combinations): 16 mg/L | MIC (strain 1013055, Cmpd 1 at 4 μg/mL in combinations): 16 mg/L | MIC (strain 1013322, Cmpd 1 at 4 μg/mL in combinations): 16 mg/L | MIC (strain 1014143, Cmpd 1 at 4 μg/mL in combinations): 32 mg/L | MIC (strain 1014646, Cmpd 1 at 4 μg/mL in combinations): 16 mg/L | MIC (strain 1014815, Cmpd 1 at 4 μg/mL in combinations): 64 mg/L | MIC (strain 1014866, Cmpd 1 at 4 μg/mL in combinations): 32 mg/L | MIC (strain 1014878, Cmpd 1 at 4 μg/mL in combinations): 32 mg/L | MIC (strain 1014890, Cmpd 1 at 4 μg/mL in combinations): 32 mg/L | MIC (strain 1016545, Cmpd 1 at 4 μg/mL in combinations): 16 mg/L | MIC (strain 1016836, Cmpd 1 at 4 μg/mL in combinations): 32 mg/L | MIC (strain 1017679, Cmpd 1 at 4 μg/mL in combinations): 32 mg/L | MIC (strain 1018109, Cmpd 1 at 4 μg/mL in combinations): 4 mg/L | MIC (strain 1018801, Cmpd 1 at 4 μg/mL in combinations): 64 mg/L | MIC (strain 1018802, Cmpd 1 at 4 μg/mL in combinations): 64 mg/L | MIC (strain 1018804, Cmpd 1 at 4 μg/mL in combinations): 32 mg/L | MIC (strain 1018806, Cmpd 1 at 4 μg/mL in combinations): 64 mg/L | MIC (strain 1018807, Cmpd 1 at 4 μg/mL in combinations): 32 mg/L | MIC (strain 1018851, Cmpd 1 at 4 μg/mL in combinations): 64 mg/L | MIC (strain 1023034, Cmpd 1 at 4 μg/mL in combinations): 16 mg/L | MIC (strain 1023074, Cmpd 1 at 4 μg/mL in combinations): 32 mg/L | MIC (strain 1023207, Cmpd 1 at 4 μg/mL in combinations): 16 mg/L | MIC (strain 1023329, Cmpd 1 at 4 μg/mL in combinations): 16 mg/L | MIC (strain 1024119, Cmpd 1 at 4 μg/mL in combinations): 32 mg/L | MIC (strain 1024215, Cmpd 1 at 4 μg/mL in combinations): 16 mg/L | MIC (strain 1026990, Cmpd 1 at 4 μg/mL in combinations): 16 mg/L | MIC (strain 1026992, Cmpd 1 at 4 μg/mL in combinations): 16 mg/L | MIC (strain 1027234, Cmpd 1 at 4 μg/mL in combinations): 8 mg/L | MIC (strain 1027590, Cmpd 1 at 4 μg/mL in combinations): 32 mg/L | MIC (strain 1027603, Cmpd 1 at 4 μg/mL in combinations): 8 mg/L | MIC (strain 1027748, Cmpd 1 at 4 μg/mL in combinations): 8 mg/L | MIC (strain 1028193, Cmpd 1 at 4 μg/mL in combinations): 64 mg/L | MIC (strain 1029770, Cmpd 1 at 4 μg/mL in combinations): 32 mg/L | MIC (strain 1029913, Cmpd 1 at 4 μg/mL in combinations): 16 mg/L | MIC (strain 1030427, Cmpd 1 at 4 μg/mL in combinations): 16 mg/L | MIC (strain 1030928, Cmpd 1 at 4 μg/mL in combinations): 64 mg/L | MIC (strain 1030945, Cmpd 1 at 4 μg/mL in combinations): 32 mg/L | MIC (strain 1031136, Cmpd 1 at 4 μg/mL in combinations): 32 mg/L | MIC (strain 1031167, Cmpd 1 at 4 μg/mL in combinations): 64 mg/L | MIC (strain 1031177, Cmpd 1 at 4 μg/mL in combinations): 16 mg/L | MIC (strain 1031191, Cmpd 1 at 4 μg/mL in combinations): 16 mg/L | MIC (strain 1031211, Cmpd 1 at 4 μg/mL in combinations): 32 mg/L | MIC (strain 1031238, Cmpd 1 at 4 μg/mL in combinations): 32 mg/L | MIC (strain 1031566, Cmpd 1 at 4 μg/mL in combinations): 32 mg/L | MIC (strain 1032669, Cmpd 1 at 4 μg/mL in combinations): 16 mg/L | MIC (strain 1032761, Cmpd 1 at 4 μg/mL in combinations): 64 mg/L | MIC (strain 1033340, Cmpd 1 at 4 μg/mL in combinations): 16 mg/L | MIC (strain 1033979, Cmpd 1 at 4 μg/mL in combinations): 64 mg/L | MIC (strain 1034048, Cmpd 1 at 4 μg/mL in combinations): 32 mg/L | MIC (strain 1034880, Cmpd 1 at 4 μg/mL in combinations): 32 mg/L | MIC (strain 1034912, Cmpd 1 at 4 μg/mL in combinations): 32 mg/L | MIC (strain 1034913, Cmpd 1 at 4 μg/mL in combinations): 32 mg/L | MIC (strain 1034916, Cmpd 1 at 4 μg/mL in combinations): 64 mg/L | MIC (strain 1034925, Cmpd 1 at 4 μg/mL in combinations): 32 mg/L | MIC (strain 1034931, Cmpd 1 at 4 μg/mL in combinations): 16 mg/L | MIC (strain 1034951, Cmpd 1 at 4 μg/mL in combinations): 32 mg/L | MIC (strain 1034962, Cmpd 1 at 4 μg/mL in combinations): 32 mg/L | MIC (strain 1035144, Cmpd 1 at 4 μg/mL in combinations): 32 mg/L
